Source: patent US12286452B2, “Amphiphilic aminoglycoside connexin hemichannel inhibitors” (Texas Tech University System, priority 2018, dated 2025)
Read-outs that look alike come from different tables or passages of the source.

Columns and labels:
Cx43 HCs = target: T1, Cx43 HCs (Homo sapiens, UniProt P17302); test: Cx43-dependent growth complementation assay in E. coli LB2003; format: cell-based; conditions: for Cx43/Cx26 Selectivity: IC50 Cx26/IC50 Cx43
T1 construct: expressed in transfected cells
T1 sequence (P17302 whole entry): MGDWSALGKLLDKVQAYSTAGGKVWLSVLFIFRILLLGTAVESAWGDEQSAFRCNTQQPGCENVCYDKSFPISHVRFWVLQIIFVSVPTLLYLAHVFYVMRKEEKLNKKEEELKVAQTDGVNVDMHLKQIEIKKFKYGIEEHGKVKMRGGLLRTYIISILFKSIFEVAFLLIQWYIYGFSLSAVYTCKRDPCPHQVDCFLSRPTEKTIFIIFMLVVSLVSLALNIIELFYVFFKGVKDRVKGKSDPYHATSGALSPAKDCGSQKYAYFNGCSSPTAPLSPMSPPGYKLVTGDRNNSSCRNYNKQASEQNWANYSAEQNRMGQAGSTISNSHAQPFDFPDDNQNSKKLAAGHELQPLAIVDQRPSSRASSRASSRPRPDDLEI

human Cx26 HCs = target: T2, human Cx26 HCs (Homo sapiens, UniProt P29033); test: Cx26-dependent growth complementation assay in E. coli LB2003; format: cell-based
T2 construct: expressed in transfected cells; host or cells: E. coli LB2003 (carrying pREP4), transformed with pQE-Cx26, IPTG-induced
Experimental: These derivatives were prepared by sequential benzylation and methylation followed by reduction of azido groups or hydrogenolysis of the Bn. […] Connexin HC inhibition was conducted using a bacteria-based assay of HC function^39. In this assay, Cx26 HCs are expressed in E. coli LB2003 cells, which lack three major K^+ uptake systems (Kdp, Kup and Trk), and as a result they cannot grow in low-[K^+] media^39-41. However, growth of this E. coli strain in low-[K^+] medium can be rescued by expression of K^+-permeable channels such as connexin HCs^39, 42-43. Under the conditions of the assay (LB2003 cells expressing HCs and grown in low-K^+ medium), inhibition of the HCs reduces or abolishes growth^39, 42-43. This is a simple assay where bacterial growth in multi-well plates can be followed by measuring the absorbance at 600 nm (OD600)^29.
LB2003 cells generously provided by Dr. E. P. Bakker (Osnabruk University, Osnabruk, Germany) were transformed with the plasmid pQE-Cx26 (human Cx26 into pQE60) and pREP4. […] LB2003 cells cannot grow in low-[K^+] media because of insufficient K^+ uptake for growth due to the knockout of three key K^+ transporters (Atrk, Akup, Akdp strain)^2-4. Details and validation of the growth complementation assay have been published recently^2. In brief, competent LB2003 containing the pREP4 plasmid were transformed with pQE-Cx26. These cells were grown overnight in Luria-Bertani medium (BD, Franklin Lakes, NJ, USA) supplemented with 100 mM KCl (to allow growth) and 0.4 mg/mL ampicillin, and then washed four times with NLM (see below), to remove residual K^+ from the Luria-Bertani medium. The washed cells were resuspended in complementation growth medium to an OD600 of 0.2. NLM contained 46 mM Na2HPO4, 23 mM NaH2PO4, 8 mM (NH4)2SO4, 0.4 mM MgSO4, 0.012 mM FeSO4, 1 mM sodium citrate, 44 mM glucose and 0.006 mM thiamine hydrochloride, pH 7.0. KLM had the same composition that NLM except for the equimolar replacement of Na^+ with K^+. For growth complementation we used NLM+4 mM KCl, and Cx26 expression was induced with 0.5 mM IPTG at the time of dilution to OD600=0.2. For the assay, the cells were seeded in 96-well plates and were incubated at 30° C., with shaking at 500 rpm. OD600 was measured after 18-h incubation in a plate reader. The initial OD600=0.2 was subtracted for growth calculations. Data are presented as means±SEM. Statistically significant differences were calculated by the Student t-test for unpaired data. Data were obtained from at least 3 independent experiments, with 3 repeats per experiment.

[1] = 15 μM, K members, the 21st table, read-out: Cx43 % inhibition
[2] = 15 μM, Table 6, read-out: Cx43 (% inhibition)
[3] = K members, the 21st table, read-out: Cx43 % inhibition
[4] = Table 6, read-out: Cx43 (% inhibition)
[5] = 4″,6″-disubstituted AKs, Table 5, read-out: Cx26 IC50
[6] = K46 members, the 20th table, read-out: IC50 (μM) against Cx26
[7] = read-out: IC50, inhibition of Cx26 by kanamycin A and synthetic AGs, first Table 1

SMILES: NC[C@@H]1O[C@H](O[C@H]2[C@@H](O)[C@H](O[C@@H]3[C@@H](O)[C@H](N)C[C@H](N)[C@H]3O[C@H]3O[C@H](CO)[C@@H](O)[C@H](O)[C@H]3N)O[C@@H]2CO)[C@H](N)[C@@H](O)[C@@H]1O [Paromomycin, reference compound]
- Cx43/Cx26 Selectivity (Cx43 HCs; the 16th table): 0.21

SMILES: NCC1O[C@H](OC2C(N)CC(N)C(OC3O[C@H](COc4ccccc4)C(O)C(N)[C@H]3O)[C@H]2O)C(O)C(O)[C@@H]1O (stereo partly shown) [Compound K34]
- inhibition at 15 µM (Cx43 HCs; [1]): 36 ± 3.9%
- inhibition at 15 µM (Cx43 HCs; 15 μM, Table 3, read-out: Cx243% inhibition): 36 ± 3.9%
- inhibition at 15 µM (Cx43 HCs; [2]): 36 ± 3.9%
- inhibition at 50 µM (Cx43 HCs; [3]): 46.7 ± 7.8%
- inhibition at 50 µM (Cx43 HCs; Table 3, read-out: Cx243% inhibition): 46.7 ± 7.8%
- inhibition at 50 µM (Cx43 HCs; [4]): 46.7 ± 7.8%
- inhibition at 15 µM (human Cx26 HCs; Table 3): 14.6 ± 4.3%
- inhibition at 15 µM (human Cx26 HCs; Table 6): 14.6 ± 4.3%
- inhibition at 50 µM (human Cx26 HCs; Table 3): 69.4 ± 4.2%
- inhibition at 50 µM (human Cx26 HCs; Table 6): 69.4 ± 4.2%

SMILES: NCC1O[C@H](OC2C(N)CC(N)C(OC3O[C@H](COc4ccc(Cl)cc4)C(O)C(N)[C@H]3O)[C@H]2O)C(O)C(O)[C@@H]1O (stereo partly shown) [Compound K84]
- inhibition at 15 µM (Cx43 HCs; [1]): 45.8 ± 6.4%
- Cx43 inhibition (%) (Cx43 HCs; 15 μM, Table 6, listed as 8d): 50.3 ± 1.0%
- inhibition at 15 µM (Cx43 HCs; [2]): > 50%
- inhibition at 50 µM (Cx43 HCs; [3]): 76.7 ± 7.7%
- inhibition at 50 µM (Cx43 HCs; [4]): 68.3 ± 4.6%
- Cx43/Cx26 Selectivity (Cx43 HCs; Table 7): 1.93
- IC50 (Cx43 HCs; Table 7, read-out: Cx43 IC50): 8.9 ± 1.6 µM
- Cx43 Imax (Cx43 HCs; the 15th table, second Cx43 column, sub-head and unit not given): 80.6 ± 6.0
- IC50 (Cx43 HCs; the 15th table, sub-head and unit inferred, read-out: Cx43 IC50): 8.9 ± 1.6 µM
- Cx43 Imax (Cx43 HCs; the 22nd table): 80.6 ± 6.0%
- IC50 (Cx43 HCs; the 22nd table, read-out: Cx43 IC50): 8.9 ± 1.6 µM
- Cx43 Imax (Cx43 HCs; the 24th table): 80.6 ± 6.0%
- IC50 (Cx43 HCs; the 24th table, read-out: Cx43 IC50): 8.9 ± 1.6 µM
- inhibition at 15 µM (human Cx26 HCs; Table 3): 44.4 ± 7%
- inhibition at 15 µM (human Cx26 HCs; Table 6): 44.4 ± 7%
- inhibition at 50 µM (human Cx26 HCs; Table 3): 69.5 ± 4.5%
- inhibition at 50 µM (human Cx26 HCs; Table 6): 69.5 ± 4.5%
- Cx26 Imax (human Cx26 HCs; the 15th table, Cx26, sub-head and unit not given): 95.9 ± 10.9
- IC50 (human Cx26 HCs; the 15th table, Cx26, unit not given (cf. the 22nd table), read-out: Cx26 IC50): 17.2 ± 3.2 µM
- Cx26 Imax (human Cx26 HCs; the 22nd table): 95.9 ± 10.9%
- Cx26 Imax (human Cx26 HCs; the 24th table): 95.9 ± 10.9%

SMILES: NC[C@H]1O[C@H](O[C@H]2[C@H](O)[C@@H](O[C@@H]3O[C@H](COCc4ccc(F)cc4)[C@@H](OCc4ccc(F)cc4)[C@H](N)[C@H]3O)[C@H](N)C[C@@H]2N)[C@H](O)[C@@H](O)[C@@H]1O [Compound 13, 4″,6″-Di-O-(4-flurobenzyl) kanamycin]
- IC50 (Cx43 HCs; 4″,6″-disubstituted AKs, Table 5, read-out: Cx43 IC50): 26.6 ± 7.8 µM
- Cx43/Cx26 Selectivity (Cx43 HCs; Table 5): 0.30
- IC50 (Cx43 HCs; K46 members, the 20th table, read-out: IC50 (μM) against Cx43): 26.6 ± 7.8 µM
- Cx43 Imax (maximal inhibition) (Cx43 HCs; the 12th table, Hill fit): 110 ± 33%
- IC50 (Cx43 HCs; the 12th table, Hill fit, mean ± SEM, some n = 1, read-out: Cx43 IC50): 26.6 ± 7.8 µM
- IC50 (human Cx26 HCs; [5]): 8.1 ± 0.5 µM
- IC50 (human Cx26 HCs; [6]): 8.1 ± 0.5 µM
- IC50 (human Cx26 HCs; first Table 2, read-out: IC50, inhibition of Cx26 by synthetic AGs): 8.1 ± 0.5 µM

SMILES: CCCCCCCCCOC[C@H]1O[C@H](O[C@H]2[C@H](O)[C@@H](O[C@H]3O[C@H](CN)[C@@H](O)[C@H](O)[C@H]3O)[C@H](N)C[C@@H]2N)[C@H](O)[C@@H](N)[C@@H]1OCCCCCCCCC [Compound 6]
- IC50 (human Cx26 HCs; [5]): 18.8 ± 1.3 µM
- IC50 (human Cx26 HCs; [6]): 18.8 ± 1.3 µM
- IC50 (human Cx26 HCs; [7]): 18.8 ± 1.3 µM

SMILES: COC1C(OC2C(N)CC(N)C(OC3OC(CN)C(OC)C(OC)C3OC)C2OC)OC(CO)C(O)C1N (stereo not shown) [Compound 9, 5, 2′, 3′, 4′, 2″-Penta-O-methyl-kanamycin]
- inhibition of Cx26 HCs (in words) (human Cx26 HCs): lack of inhibitory activity
- IC50, inhibition of Cx26 by kanamycin A and synthetic AGs (human Cx26 HCs; first Table 1): No inhibition at 100 μM

SMILES: CCCCCCOC[C@H]1O[C@H](O[C@@H]2[C@@H](O)[C@H](O[C@H]3O[C@H](CN)[C@@H](O)[C@H](O)[C@H]3O)[C@@H](N)C[C@H]2N)[C@H](O)[C@@H](N)[C@@H]1OCCCCCC [Compound 3]
- IC50 (human Cx26 HCs; [5]): 6.2 ± 1.4 µM
- IC50 (human Cx26 HCs; [6]): 6.2 ± 1.4 µM
- IC50 (human Cx26 HCs; [7]): 6.2 ± 1.4 µM

SMILES: CCCCOCC1OC(OC2C(N)CC(N)C(OC3OC(CN)C(O)C(O)C3O)C2O)C(O)C(N)C1OCCCC (stereo not shown) [Compound 2]
- IC50 (human Cx26 HCs; [5]): 19 ± 2 µM
- IC50 (human Cx26 HCs; [6]): 19 ± 2.8 µM
- IC50 (human Cx26 HCs; [7]): 19 ± 2.8 µM

SMILES: CCCCCCO[C@H]1[C@H](N)[C@@H](O)[C@@H](O[C@@H]2[C@@H](O)[C@H](O[C@H]3O[C@H](CN)[C@@H](O)[C@H](O)[C@H]3O)[C@@H](N)C[C@H]2N)O[C@@H]1CO [Compound 4]
- IC50 (human Cx26 HCs; first Table 1): 13.5 ± 1.8 µM
